Source: patent publication US20070031511A1, “Method of treatment” (priority 2003, published 2007)
Read-outs that look alike come from different tables or passages of the source.

Legend:
[1] = Quenching of peptide tryptophan fluorescence by ferric ions (stoichiometry, apparent Kd); format: binding; settings: mean ± S.E.
In short: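 Ferric ions titrated into peptide in 10 mM sodium acetate pH 4.0, 100 mM NaCl, 0.005% Tween 20; Trp fluorescence quenching read at ex 290/em 345 nm. Stoichiometry and apparent Kd from linear regression of Cs/fa = pCa + Kd/(1−fa); means ±S.E. of independent experiments.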

CCK-2 receptor [2] = target: T1, CCK-2 receptor (Homo sapiens, UniProt P32239); experiment: [125I]-BH-CCK8 displacement, CCK-2 receptor on Jurkat cells; format: binding
T1 sequence (P32239 1-447): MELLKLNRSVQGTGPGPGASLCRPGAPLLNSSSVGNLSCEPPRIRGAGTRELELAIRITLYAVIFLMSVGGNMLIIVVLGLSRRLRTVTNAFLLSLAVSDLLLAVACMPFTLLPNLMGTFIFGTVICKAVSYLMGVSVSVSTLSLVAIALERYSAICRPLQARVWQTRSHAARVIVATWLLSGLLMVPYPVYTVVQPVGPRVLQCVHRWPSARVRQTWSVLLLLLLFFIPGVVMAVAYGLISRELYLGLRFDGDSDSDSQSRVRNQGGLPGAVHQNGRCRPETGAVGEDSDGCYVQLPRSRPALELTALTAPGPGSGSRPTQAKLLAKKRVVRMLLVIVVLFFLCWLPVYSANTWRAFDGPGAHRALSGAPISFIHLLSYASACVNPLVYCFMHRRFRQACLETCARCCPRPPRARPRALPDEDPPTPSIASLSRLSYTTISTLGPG
Protocol: Non-specific binding was evaluated with […] of unlabelled CCK8. Incubation was stopped by adding 2 ml of ice-cold PBS containing 2% bovine serum albumin. After centrifugation, supernatants were removed and the radioactivity bound to the cell membranes was measured in a γ-counter (LKB, Wallac, Finland).

CCK-2 receptor [3] = target: T1, CCK-2 receptor; experiment: Gamide-stimulated inositol phosphate production in COS-7 cells transfected with the CCK-2 receptor; format: cell-based; parameters: COS-7 cells transiently transfected with CCK-2 receptor cDNA; expressed in transfected cells; host or cells: COS-7
Protocol: Intracellular inositol phosphate production was determined as described previously (Qian et al, 1993). IMGE-5 cells (10^5 cells/ml) were plated in 24-multiwell culture plates in DMEM supplemented with 10% FBS, 200 IU/ml penicillin and 200 μg/ml streptomycin. 24 h later, cells were incubated with DMEM supplemented with antibiotics and Myo-[2-^3H]inositol (2.5 μCi/well) and shifted to 39° C. for 16 h. Cells were then washed with pre-warmed DMEM and incubated (20-30 minutes, 37° C.) with DMEM supplemented with 20 mM LiCl. Loaded cells were then washed in 1 ml of IP buffer (135 mM NaCl, 20 mM N-(2-hydroxyethyl)piperazine-N′-(2-ethanesulfonic acid), 2 mM CaCl2, 1.2 mM MgSO4, 1 mM ethylene glycol-bis(2-aminoethylether)-N,N,N′,N′-tetraacetic acid, 10 mM LiCl, and 0.5% bovine serum albumin, pH 7.45) and incubated with or without agonist in a final volume of 0.5 ml of IP buffer. After 1-h incubation at 37° C., the reaction was stopped by removing the incubation medium and adding 1 ml of a mixture of ethanol/HCl (2000:1; v/v). One ml of each aliquot was applied to a column containing 1.6 ml of a 1:2 (v/v) Dowex AG-1-X8 anion exchange resin in distilled water. The columns were washed with 4 ml of distilled water, followed by 4 ml of 40 mM HCOONH4, and inositol phosphates were eluted with 4 ml of 1 M HCOONH4. The radioactivity of each eluate was counted after addition of Complete phase combining system solution (Amersham, UK). For the positive control, IMGE-5 cells were incubated with a combination of 30 mM NaF and 10 μM AlCl3 under the same experimental conditions.
Gamide-stimulated inositol phosphate production was measured in COS-7 cells transfected with the CCK-2 receptor. […] Bismuth ions alone had no effect on inositol phosphate production in CCK-2 receptor-transfected COS-7 cells and HT29 cells, even at the highest concentration tested.
We then investigated the role of the individual glutamates in biological activity. The effects of the mutants GamideE7A and GamideE8,9A on inositol phosphate production in COS-7 cells transiently transfected with the CCK-2 receptor were compared.

## CSCC[C@H](NC(=O)[C@H](Cc1c[nH]c2ccccc12)NC(=O)CNC(=O)[C@H](Cc1ccc(O)cc1)NC(=O)[C@H](C)NC(=O)[C@H](CCC(=O)O)NC(=O)[C@H](CCC(=O)O)NC(=O)[C@H](CCC(=O)O)NC(=O)[C@H](CCC(=O)O)NC(=O)[C@H](CCC(=O)O)NC(=O)[C@H](CC(C)C)NC(=O)[C@H](Cc1c[nH]c2ccccc12)NC(=O)[C@@H]1CCCN1C(=O)CNC(=O)[C@@H]1CCC(=O)N1)C(=O)N[C@@H](CC(=O)O)C(=O)N[C@@H](Cc1ccccc1)C(N)=O [Gamide]
[1]; pH 4.0, read-out: Kd (μM) of ferric ion binding (amidated gastrin17 and related peptides)
  Kd: 0.2 ± 0.14 µM
[1]; pH 4.0, model with two identical independent binding sites, read-out: Ferric Kd
  Kd: 0.2 ± 0.1 µM
CCK-2 receptor [2]; binding in the absence of competitor, fitted, mean ± S.E.
  % Maximum Binding (Jurkat): 100.0 ± 3.1%
CCK-2 receptor [2]; presence and absence of 1 μM DFO
  % Maximum Binding (Jurkat): 99.0 ± 0.4%
CCK-2 receptor [2]; single experiment, presence and absence of 1 μM DFO
  Ordinate intercept, FIG. 24B: 99.6%
CCK-2 receptor [3]; 10 nM peptide
  Stimulation of inositol phosphate production: No significant difference was observed in the extent of stimulation
CCK-2 receptor [3]; COS-7 cells transfected with the CCK-2 receptor, 10 μM AlF4−, 10 nM Gamide
  Increase in inositol phosphate production: 4 fold

## Ggly: glycine-extended gastrin17, 18 amino acid non-amidated gastrin, SEQ ID NO:4, residues 55-72 of progastrin (XGPWLEEEEEAYGWMDFG; (1)..(1) pyroglutamate; listed as Homo sapiens)
[1]; 10 mM sodium acetate pH 4.0, 100 mM NaCl, 0.005% Tween 20, read-out: Kd (μM), apparent dissociation constant for ferric ions
  Kd: 0.18 ± 0.04 µM

## [Bi+3] [bismuth ions]
CCK-2 receptor [3]; 2, 8, and 32 moles Bi3+/mole Gamide, 10 nM Gamide
  Effect on Gamide-induced inositol phosphate production: no significant effect
CCK-2 receptor [3]; CCK-2 receptor-transfected COS-7 cells, highest concentration tested
  Effect of bismuth ions alone on inositol phosphate production: no effect
